The record followed here is article PMC4959957 (British Journal of Pharmacology, 2016).

The target of this assay is T1, Asu-ACR-16 (Ascaris suum, UniProt A0A0K0QSL7).
T1 sequence (A0A0K0QSL7 24-504): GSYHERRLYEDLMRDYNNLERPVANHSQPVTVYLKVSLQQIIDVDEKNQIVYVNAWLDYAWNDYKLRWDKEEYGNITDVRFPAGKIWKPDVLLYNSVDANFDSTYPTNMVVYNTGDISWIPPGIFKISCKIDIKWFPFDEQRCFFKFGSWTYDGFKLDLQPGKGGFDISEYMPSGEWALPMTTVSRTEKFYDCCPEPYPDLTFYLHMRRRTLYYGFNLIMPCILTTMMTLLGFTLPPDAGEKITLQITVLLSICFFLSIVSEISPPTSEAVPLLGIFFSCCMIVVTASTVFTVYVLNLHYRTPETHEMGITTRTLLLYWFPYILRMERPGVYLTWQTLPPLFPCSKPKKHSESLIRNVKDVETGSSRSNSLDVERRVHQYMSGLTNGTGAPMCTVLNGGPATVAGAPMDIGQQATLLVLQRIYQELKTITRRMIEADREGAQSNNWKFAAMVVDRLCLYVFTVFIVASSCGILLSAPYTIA
The experiment in a line: two-electrode voltage clamp, agonist concentration-response in Xenopus oocytes. Format: cell-based. On the technique in general: Two-electrode voltage clamp is typically applied to oocytes expressing channels or transporters.

The molecule `CC(=O)OCC[N+](C)(C)C` [ACh] gave an EC50 of 5.9 ± 0.1 µM. Molecule `CN1CCC[C@H]1c1cccnc1` [nic, nicotine] displayed an EC50 of 4.5 ± 0.2 µM.

By EC50 is commonly meant the concentration that produces a half-maximal response. Higher therefore signals weaker potency.
